Laboratory results taken from paper PMC3101112 (Cancer Management and Research, 2011).
pIC50: −log10 of the molar value.

Assays:
[1] = molecular target: p70S6K (Homo sapiens, UniProt P23443); assay: Biochemical inhibition profile, p70S6K; conditions: read-out: p70S6K percent inhibition at 20 μM
[2] = test system: pERK T202Y204 in HUVEC (with BSA); assay: Cell-based target inhibition assay, HUVEC, VEGF, pERK with BSA; design: species or system human; conditions: Homo sapiens, read-out: Cell-Based Target Inhibition Assays IC50, pERK T202Y204 (with BSA)
[3] = test system: MV4-11; assay: cells; type: cell-based; conditions: Homo sapiens, MV4-11, read-out: Cell-Based Antiproliferation Assay IC50
[4] = molecular target: EPHA8 (Homo sapiens, UniProt P29322); assay: Biochemical inhibition profile, EPHA8
Sequence of EPHA8 (P29322 28-1005): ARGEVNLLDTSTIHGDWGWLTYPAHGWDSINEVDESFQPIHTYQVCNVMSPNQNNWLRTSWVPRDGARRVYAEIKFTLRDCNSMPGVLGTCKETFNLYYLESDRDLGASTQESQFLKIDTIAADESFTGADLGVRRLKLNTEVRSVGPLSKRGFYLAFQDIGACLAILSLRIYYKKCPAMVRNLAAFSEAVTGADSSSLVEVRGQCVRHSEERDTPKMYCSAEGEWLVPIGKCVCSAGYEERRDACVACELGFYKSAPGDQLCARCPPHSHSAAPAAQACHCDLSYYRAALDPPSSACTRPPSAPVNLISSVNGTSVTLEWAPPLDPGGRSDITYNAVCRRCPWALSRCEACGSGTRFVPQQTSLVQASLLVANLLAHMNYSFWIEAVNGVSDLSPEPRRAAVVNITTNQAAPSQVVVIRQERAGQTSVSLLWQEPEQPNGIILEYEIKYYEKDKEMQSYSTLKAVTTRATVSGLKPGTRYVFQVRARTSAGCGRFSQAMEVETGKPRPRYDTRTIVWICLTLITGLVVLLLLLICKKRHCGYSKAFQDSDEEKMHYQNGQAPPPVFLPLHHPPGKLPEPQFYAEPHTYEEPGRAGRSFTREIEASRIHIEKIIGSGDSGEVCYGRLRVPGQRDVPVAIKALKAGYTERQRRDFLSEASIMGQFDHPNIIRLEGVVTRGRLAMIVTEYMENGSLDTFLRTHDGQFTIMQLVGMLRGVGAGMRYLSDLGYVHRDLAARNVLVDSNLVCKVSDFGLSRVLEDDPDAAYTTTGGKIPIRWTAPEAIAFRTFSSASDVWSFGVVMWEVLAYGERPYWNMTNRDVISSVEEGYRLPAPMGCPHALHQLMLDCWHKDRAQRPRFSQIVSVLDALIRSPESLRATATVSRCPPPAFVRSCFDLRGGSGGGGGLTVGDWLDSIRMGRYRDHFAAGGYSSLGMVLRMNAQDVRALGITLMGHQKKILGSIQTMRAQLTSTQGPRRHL

[5] = test system: RAF; assay: Biochemical inhibition profile, RAF; design: species or system Human; conditions: read-out: Biochemical Inhibition Profile IC50, RAF
[6] = test system: pERK T202Y204 in HUVEC; assay: Cell-based target inhibition assay, HUVEC, VEGF, pERK; design: species or system human; conditions: Homo sapiens, read-out: Cell-Based Target Inhibition Assays IC50, pERK T202Y204
[7] = test system: pFLT3; conditions: Western blotting; 200 mg; 10/13 patients; cited from earlier work

Sequence of p70S6K (P23443 whole entry): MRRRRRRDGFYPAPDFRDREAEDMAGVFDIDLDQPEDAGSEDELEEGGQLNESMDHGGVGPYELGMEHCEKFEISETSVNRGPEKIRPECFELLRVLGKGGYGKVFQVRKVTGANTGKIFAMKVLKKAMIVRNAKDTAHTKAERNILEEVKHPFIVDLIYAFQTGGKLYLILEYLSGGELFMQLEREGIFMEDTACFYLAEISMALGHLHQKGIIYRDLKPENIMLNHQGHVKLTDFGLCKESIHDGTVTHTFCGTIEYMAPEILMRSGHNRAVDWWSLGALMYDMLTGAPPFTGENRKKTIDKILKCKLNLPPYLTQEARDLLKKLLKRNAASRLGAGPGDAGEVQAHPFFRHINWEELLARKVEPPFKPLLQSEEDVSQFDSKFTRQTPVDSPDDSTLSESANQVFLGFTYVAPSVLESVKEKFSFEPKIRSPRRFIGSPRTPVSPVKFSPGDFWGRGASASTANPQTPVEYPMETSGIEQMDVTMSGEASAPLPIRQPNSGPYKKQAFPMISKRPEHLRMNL

SMILES | inhibition at 20 µM [1] [%] | pIC50 [2] | pIC50 [3] | pIC50 [4] | pIC50 [5] | pIC50 [6] | Patients with reduction of pFLT3 [7] [%]
CNC(=O)c1cc(Oc2ccc(NC(=O)Nc3ccc(Cl)c(C(F)(F)F)c3)cc2)ccn1 [Sorafenib] | 75.6 | 7.42 | 7.93 |  |  |  | 
CCN(CC)CCNC(=O)c1c(C)[nH]c(/C=C2\C(=O)Nc3ccc(F)cc32)c1C [Sunitinib, reference compound] | 92.3 |  | 7.71 | < 4.70 | < 4.70 | 7.54 | 77
